This assay deals with T1, Tyrosine-protein phosphatase non-receptor type 5 (Homo sapiens, UniProt P54829).
T1 sequence (P54829 whole entry): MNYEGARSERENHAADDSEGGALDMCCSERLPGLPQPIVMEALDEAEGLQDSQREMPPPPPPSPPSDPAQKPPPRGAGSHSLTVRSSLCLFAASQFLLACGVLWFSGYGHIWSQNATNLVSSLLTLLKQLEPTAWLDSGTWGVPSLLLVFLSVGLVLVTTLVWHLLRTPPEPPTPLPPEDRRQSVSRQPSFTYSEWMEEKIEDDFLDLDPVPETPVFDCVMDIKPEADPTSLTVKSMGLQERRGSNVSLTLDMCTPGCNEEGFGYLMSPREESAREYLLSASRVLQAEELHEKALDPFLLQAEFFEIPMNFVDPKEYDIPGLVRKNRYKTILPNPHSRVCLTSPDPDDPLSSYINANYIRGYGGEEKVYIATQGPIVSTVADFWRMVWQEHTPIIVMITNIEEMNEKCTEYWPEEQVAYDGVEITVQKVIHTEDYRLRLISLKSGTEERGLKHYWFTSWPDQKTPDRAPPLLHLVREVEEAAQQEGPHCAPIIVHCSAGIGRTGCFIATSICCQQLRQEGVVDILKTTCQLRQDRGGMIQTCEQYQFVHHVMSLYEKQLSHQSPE
The assay can be described thus: PTPN5 inhibition measured colorimetrically – biochemical, colorimetric absorbance, orthogonal assay for STEP inhibitor project, dose response (AID 624207).

The mark [1] stands for this setting: inactive by the depositor's call.

Each structure is given as a SMILES string.

We go through 55 compounds from BindingDB's records for doi:10.7270/Q2KH0KWR (Burnham Center For Chemical Genomics, 2012).

For the compound `COc1cc(/C=N/NC(=O)c2ccccc2O)ccc1OCC(=O)Nc1ccccc1` [SMR000515267], under setting [1], the IC50 – broadly, the concentration needed to halve the response being measured – amounted to 44.7 µM. Still for that read-out and setting: the value for `N#CNc1nc(O)cc(=O)[nH]1` [MLS000737363] was 40 µM. `COc1cc(Cl)cc(C=NNC(=O)c2ccc3c(c2)OCO3)c1O` [N'-[(E)-(3-chloro-5-methoxy-6-oxo-1-cyclohexa-2,4-dienylidene)methyl]-1,3-benzodioxole-5-carbohydrazide]: the IC50 was found to be 23.3 µM. In other words, the double-digit micromolar range. Compound `O=C(C=Cc1ccc(Cl)cc1)NC(=S)Nc1ccc(C(=O)O)cc1` gave an IC50 above 80 µM. `Cc1ccc(NC(=O)c2ccc3nc(N4CCOCC4)sc3c2)c(Cl)c1` [SMR000624920] yielded an IC50 under setting [1] of 22.4 µM.

`CCOC(=O)CN1C(=O)S/C(=C/c2ccc(OCc3ccc(C(=O)O)cc3)cc2)C1=O` [4-[[4-[(E)-[3-(2-ethoxy-2-oxoethyl)-2,4-dioxo-5-thiazolidinylidene]methyl]phenoxy]methyl]benzoic acid] came in with an IC50 above 80 µM.

Turning to `Cc1c(C)c2ccc(OCC(=O)Nc3ccc(S(N)(=O)=O)cc3)c(C)c2oc1=O` [SMR000652408], the IC50 under setting [1] stood at 36.1 µM. Regarding `O=C(N/N=C/c1ccoc1)c1cc(O)cc(O)c1` [N-[(E)-furan-3-ylmethylideneamino]-3,5-dihydroxybenzamide], the IC50 was above 80 µM. Compound `CCc1ccc(NC2=NC(=O)C(=Cc3ccc(OCC(=O)O)cc3)S2)cc1` [2-[4-[(Z)-[2-(4-ethylanilino)-4-oxo-5-thiazolylidene]methyl]phenoxy]acetic acid] displayed an IC50 of 37.1 µM. Same read-out and setting: the value for `O=C(NN=Cc1ccccc1O)NN=Cc1ccccc1O` [SMR001556943] was 32.5 µM; that for `Cc1cc(C(=O)NN=Cc2ccc(-c3ccc([N+](=O)[O-])cc3Cl)o2)[nH]n1` [N-[[5-(2-chloro-4-nitrophenyl)furan-2-yl]methylideneamino]-5-methyl-1H-pyrazole-3-carboxamide] was above 80 µM; that for `NS(=O)(=O)c1ccc(N/C(S)=N\CCc2ccccc2)cc1` [MLS000621468] was above 80 µM. In turn, `CCOC(=O)c1c(NC(=O)OC)sc(C(=O)N(CC)CC)c1C` [ethyl 5-(diethylcarbamoyl)-2-(methoxycarbonylamino)-4-methylthiophene-3-carboxylate] yielded an IC50 under setting [1] of 44.3 µM. Under setting [1], `Cc1ccc(N=C(S)N(CCN(C)C)Cc2cccs2)c(C)c1` yielded an IC50 of 56 µM.

`COc1ccc(NC(=S)NCCCN2CCCC2)cc1Cl` [1-(3-chloro-4-methoxyphenyl)-3-[3-(1-pyrrolidinyl)propyl]thiourea]: the midpoint of inhibition under setting [1], the IC50, lay at 31.1 µM. The same measure, in the same setting: the value for `COc1ccc(Cl)cc1N=C(S)N(CCCN1CCOCC1)Cc1cn(C)c2ccccc12` [N'-(5-chloro-2-methoxyphenyl)-N-[(1-methyl-1H-indol-3-yl)methyl]-N-(3-morpholin-4-ylpropyl)thiourea] was 36.9 µM.

Turning to `O=C(COc1ccc([N+](=O)[O-])cc1)Nc1nnc(-c2cccnc2)s1` [SMR000385697], the IC50 is above 80 µM. As to `Cc1ccc(S(=O)(=O)Cc2ccc(C(=O)O)o2)cc1` [5-(tosylmethyl)-2-furoic acid], the IC50 was above 80 µM. The compound `CCC(CC)c1nnc(NC(=O)c2cc(C(=O)OC)cc([N+](=O)[O-])c2)s1` displayed an IC50 under setting [1] of 21.8 µM. This counts as double-digit micromolar.

`C=c1c(O)c(O)c(=C2C(=O)C(=O)C(C)C(=O)C2=O)c(O)c1O` (stereo not given) [(3E)-5-hydroxy-6-methyl-3-(2,3,5-trihydroxy-4-methyl-6-oxo-1-cyclohexa-2,4-dienylidene)cyclohex-5-ene-1,2,4-trione] gave an IC50 above 80 µM. For `COc1ccc(NC(S)=NCCN2CCC(C)CC2)cc1Cl` [1-(3-chloro-4-methoxyphenyl)-3-[2-(4-methyl-1-piperidinyl)ethyl]thiourea], the IC50 turned out to be 18.2 µM. This lies in the double-digit micromolar range.

For `Cc1sc2nc(CSC(C)C(=O)Nc3ccc(Cl)cn3)nc(O)c2c1C` (stereo not given) [SMR001268769], the IC50 under setting [1] was found to be 38.4 µM. As for `CC(=O)N1CCOc2ccc(S(=O)(=O)NCc3ccc(F)cc3)cc21` [MLS001117284], the IC50 was above 80 µM. Still for that read-out and setting: the value for `CC(=NNC(=S)N1CC2CCC(CC2)C1)c1cccc(C)n1` [SMR001565418] was above 80 µM; that for `O=C(N/N=C/c1coc2ccccc2c1=O)c1cc2ccccc2o1` [MLS000700471] was above 80 µM. Regarding `CCCc1cc(=O)oc2cc(OCC(=O)Nc3ccc(S(N)(=O)=O)cc3)ccc12` [2-(2-oxo-4-propylchromen-7-yl)oxy-N-(4-sulfamoylphenyl)acetamide], under setting [1], 30.6 µM corresponded to half-maximal inhibition (IC50).

`Cn1cc(CC(=O)Nc2cccc(C#N)c2)c2ccccc21` [N-(3-cyanophenyl)-2-(1-methyl-1H-indol-3-yl)acetamide] gave an IC50 above 80 µM. Still for that read-out and setting: with `Cc1cc(C)c(NC(S)=NCC2CCN(C(C)c3ccccc3)C2)c(C)c1` (stereo not given) [1-[[1-(1-phenylethyl)-3-pyrrolidinyl]methyl]-3-(2,4,6-trimethylphenyl)thiourea] the figure was 12.1 µM; with `O=C(Nc1cccc2c(=O)[nH][nH]c(=O)c12)c1ccc([N+](=O)[O-])cc1` [MLS003171605], above 80 µM.

`O=C(N/N=C/c1ccncc1)c1cccc(S(=O)(=O)Nc2ccc(Cl)cc2)c1`: the midpoint of inhibition, the IC50, lay at 19.7 µM. The compound `CCN(c1ccccc1)S(=O)(=O)c1cc(C(=O)OCC(=O)c2c(N)n(C)c(=O)n(C)c2=O)ccc1C` [[2-(4-amino-1,3-dimethyl-2,6-dioxopyrimidin-5-yl)-2-oxoethyl] 3-[ethyl(phenyl)sulfamoyl]-4-methylbenzoate] showed an IC50 above 80 µM. Compound `COc1ccc(OC)c(-n2c(O)c3o[nH]c(-c4ccccc4Cl)c-3c2=O)c1` [SMR000046218] yielded an IC50 above 80 µM. On the same count and under the same terms, the value for `CCOc1cc(CN=Nc2nc(O)c(CC(=O)O)s2)ccc1OCc1ccc(Cl)cc1Cl` [2-[2-[(N''E)-N''-[4-(2,4-dichlorobenzyl)oxy-3-ethoxy-benzylidene]hydrazino]-4-keto-2-thiazolin-5-yl]acetic acid] was above 80 µM. Consider `O=C(N/N=C/c1ccc(OC(=O)c2cccs2)cc1)c1cccc(F)c1` [MLS000576933], for which, under setting [1], the midpoint of inhibition, the IC50, lay at 25.5 µM. `NN=C1C(Cl)=C(Cl)C(Cl)=C1Cl` had an IC50 above 80 µM.

As for `CCN(CC)P(=O)(NC(=O)C(Cl)(Cl)Cl)N(CC)CC` [MLS000564159], inhibition was half-maximal at 77.5 µM (IC50). As for `O=C(NN=Cc1ccc(F)cc1)c1cc(-c2ccc3c(c2)OCO3)n[nH]1` [3-(1,3-benzodioxol-5-yl)-N-[(E)-(4-fluorobenzylidene)amino]-1H-pyrazole-5-carboxamide], the half-maximal inhibitory concentration (IC50) is above 80 µM. Still for that read-out and setting: the value for `CCCCN(CC)Cc1ccc(CN=C(S)Nc2c(C)cc(C)cc2C)o1` [N-[(5-{[butyl(ethyl)amino]methyl}-2-furyl)methyl]-N'-mesitylthiourea] was above 80 µM.

`O=C1NN(c2cccc(Br)c2)C(=O)/C1=C\c1ccc(N2CCOCC2)cc1`: the concentration for half-maximal inhibition (IC50) is above 80 µM.

The compound `COc1ccc(-n2nc(C(=O)NCC(=O)Nc3ccccn3)c3ccccc3c2=O)cc1Cl` [3-(3-chloranyl-4-methoxy-phenyl)-4-oxidanylidene-N-[2-oxidanylidene-2-(pyridin-2-ylamino)ethyl]phthalazine-1-carboxamide] displayed an IC50 above 80 µM. On to `N=C(NCc1ccc2c(c1)OCO2)NC(=O)c1ccccc1` [SMR000293067], for which the IC50 under setting [1] stood at 77 µM. On the same count and under the same terms, with `CN1CCN(C(S)=Nc2ccc(S(N)(=O)=O)cc2)CC1` [N-[4-(aminosulfonyl)phenyl]-4-methyl-1-piperazinecarbothioamide] the figure was 41.5 µM.

Consider `S=C(c1ccc(Br)cc1)N1CCN(Cc2ccccc2)CC1` [(4-bromophenyl)-[4-(phenylmethyl)-1-piperazinyl]methanethione], for which the IC50 under setting [1] is 54.9 µM. `O=C(COc1ccc(/C=N/NC(=O)c2ccc(O)cc2)cc1)Nc1cccc([N+](=O)[O-])c1` [MLS000714465] registered an IC50 of 20 µM. As to `Cc1nnc2sc(-c3ccc(NC(=O)c4ccc(-c5ccc(Cl)cc5Cl)o4)cc3)nn12` [MLS000050448], the IC50 was above 80 µM. On the same count and under the same terms, with `CC(=O)c1ccc(S(=O)(=O)Nc2cccc(-n3cnnn3)c2)cc1` the figure was above 80 µM; with `S=C1N=C(C23CC4CC(CC(C4)C2)C3)CC(c2ccc3c(c2)OCO3)N1` (stereo not given), above 80 µM. Under setting [1], `COc1cc(Cl)ccc1N=C(S)N(CCCN1CCOCC1)Cc1cn(C)c2ccccc12` [N'-(4-chloro-2-methoxyphenyl)-N-[(1-methyl-1H-indol-3-yl)methyl]-N-(3-morpholin-4-ylpropyl)thiourea] returned an IC50 of 34.4 µM. The compound `Cc1c(C)n(C(=O)CSc2nc3ccccc3[nH]2)c2ccccc12` [2-(1H-benzimidazol-2-ylthio)-1-(2,3-dimethyl-1-indolyl)ethanone] came in with an IC50 above 80 µM.

As to `OCCN1CCN(C(=S)c2ccc(Br)cc2)CC1` [MLS000577024], the IC50 under setting [1] was determined as 57 µM.

In the case of `CCc1ccc(OCC(=O)Nc2ccc(-c3nc4ccccc4o3)c(O)c2)cc1` [MLS000109444], the IC50 was above 80 µM. In the case of `COc1ccccc1NS(=O)(=O)c1cc(NC(=S)NCCN2CCOCC2)ccc1N1CCOCC1` [MLS000409155], the IC50 under setting [1] stood at 29.7 µM.

`O=S(=O)(O)c1cc(O)c2cc(Nc3ccccc3)ccc2c1` gave an IC50 under setting [1] of 24.1 µM. In the case of `COc1cc(/C=C2/SC(=S)N(CC(=O)O)C2=O)ccc1OCC(=O)Nc1ccc(C)c(C)c1` [2-[(5E)-5-[[4-[2-[(3,4-dimethylphenyl)amino]-2-oxidanylidene-ethoxy]-3-methoxy-phenyl]methylidene]-4-oxidanylidene-2-sulfanylidene-1,3-thiazolidin-3-yl]ethanoic acid], the IC50 was above 80 µM. In the case of `CCN1CCN(C(=S)c2ccc(Cl)cc2)CC1` [MLS000594090], it took 25.5 µM to reach half-maximal inhibition under setting [1] (IC50).
